Assay results reported in patent US10913744B2, “LRRK2 inhibitors and methods of making and using the same” (Dana-Farber Cancer Institute, Inc., priority 2015, dated 2021).
Read-outs that look alike come from different tables or passages of the source.

Tests used:
[1] = molecular target: GST-LRRK2(1,326-2,517) wild-type (Homo sapiens (Human), UniProt Q5S007); test: Nictide peptide kinase assay, 100 μM ATP; assay type: biochemical; conditions: 20 μM Nictide
Protocol: (§1) Assay procedures are further discussed in Section 4 herein.
(§2) Samples were washed extensively and the incorporation of [γ-32P]ATP into Nictide was quantified by Cerenkov counting. IC50 values were calculated with GraphPad Prism using non-linear regression analysis.

[2] = molecular target: GST-LRRK2[A2016T](1326-2517) (Homo sapiens (Human), UniProt Q5S007, A2016T); test: Nictide peptide kinase assay, 100 μM ATP; assay type: biochemical; conditions: 20 μM Nictide
Protocol: as §1, §2

[3] = molecular target: GST-LRRK2[G2019S + A2016T](1,326-2,517) (Homo sapiens (Human), UniProt Q5S007, A2016T/G2019S); test: Nictide peptide kinase assay, 100 μM ATP; assay type: biochemical; conditions: 20 μM Nictide
Protocol: as §1, §2

[4] = molecular target: GST-LRRK2[G2019S](1,326-2,527) (Homo sapiens (Human), UniProt Q5S007, G2019S); test: Nictide peptide kinase assay, 100 μM ATP; assay type: biochemical; conditions: 20 μM Nictide
Protocol: as §1, §2

GFP-LRRK2[G2019S] = GFP-LRRK2[G2019S] (Homo sapiens (Human), UniProt Q5S007, G2019S); test: Ser910/Ser935 phosphorylation immunoblot in HEK293 cells; assay type: cell-based; conditions: 90 min
Protocol: FIG. 2A-2D show inhibition of LRRK2 by Compound 18. HEK293 cells stably expressing FIG. 2A: wild-type GFP-LRRK2, FIG. 2B: GFP-LRRK2[G2019S], FIG. 2C: GFP-LRRK2[G2019S+A2016T], and FIG. 2D: GFP-LRRK2[A2016T] were treated with dimethylsulfoxide (DMSO) or increasing concentrations of Compound 18 for 90 min (1 μM of LRRK2-IN-1 was used as a control). Cell lysates were subjected to immunoblotting for detection of LRRK2 phosphorylated at Ser910 and Ser935 and for total LRRK2.
HEK293 and Swiss 3T3 cells were cultured in DMEM (Dulbecco's Modified Eagle's medium) supplemented with 10% FBS (fetal bovine serum), 2 mM glutamine and 1× penicillin/streptomycin solution. HEK-293 T-Rex cell lines were cultured in DMEM supplemented with 10% (v/v) FBS and 2 mM glutamine, lx penicillin/streptomycin solution, 15 μg/ml blastocidin and 100 μg/ml hygromycin. T-Rex cultures were induced to express the indicated protein by inclusion of 0.1 μg/ml doxycycline in the culture medium for 24-48 hr. […] Protein concentrations were determined following centrifugation of the lysate at 16,000×g at 4° C. for 20 minutes using the Bradford method with BSA as the standard. […]
As there are no validated direct phosphorylation substrates of LRRK2, phosphorylation of Ser910 and Ser935, two residues whose phosphorylation is known to be dependent upon LRRK2 kinase activity, was monitored.

BMPR2 = BMPR2 (Homo sapiens (Human), UniProt Q13873); test: KinomeScan; assay type: binding; conditions: 1 uM
[5] = molecular target: EGFR (L747-E749del, A750P) (Homo sapiens (Human), UniProt P00533, A750P/DEL747-749); test: KinomeScan; assay type: binding; conditions: 1 uM
JNK1 = JNK1 (Homo sapiens (Human), UniProt P45983); test: KinomeScan; assay type: binding; conditions: 1 uM
MAP4K5 = MAP4K5 (Homo sapiens (Human), UniProt Q9Y4K4); test: Dundee profiling
Sequence of MAP4K5 (Q9Y4K4 whole entry, looked up, species assumed): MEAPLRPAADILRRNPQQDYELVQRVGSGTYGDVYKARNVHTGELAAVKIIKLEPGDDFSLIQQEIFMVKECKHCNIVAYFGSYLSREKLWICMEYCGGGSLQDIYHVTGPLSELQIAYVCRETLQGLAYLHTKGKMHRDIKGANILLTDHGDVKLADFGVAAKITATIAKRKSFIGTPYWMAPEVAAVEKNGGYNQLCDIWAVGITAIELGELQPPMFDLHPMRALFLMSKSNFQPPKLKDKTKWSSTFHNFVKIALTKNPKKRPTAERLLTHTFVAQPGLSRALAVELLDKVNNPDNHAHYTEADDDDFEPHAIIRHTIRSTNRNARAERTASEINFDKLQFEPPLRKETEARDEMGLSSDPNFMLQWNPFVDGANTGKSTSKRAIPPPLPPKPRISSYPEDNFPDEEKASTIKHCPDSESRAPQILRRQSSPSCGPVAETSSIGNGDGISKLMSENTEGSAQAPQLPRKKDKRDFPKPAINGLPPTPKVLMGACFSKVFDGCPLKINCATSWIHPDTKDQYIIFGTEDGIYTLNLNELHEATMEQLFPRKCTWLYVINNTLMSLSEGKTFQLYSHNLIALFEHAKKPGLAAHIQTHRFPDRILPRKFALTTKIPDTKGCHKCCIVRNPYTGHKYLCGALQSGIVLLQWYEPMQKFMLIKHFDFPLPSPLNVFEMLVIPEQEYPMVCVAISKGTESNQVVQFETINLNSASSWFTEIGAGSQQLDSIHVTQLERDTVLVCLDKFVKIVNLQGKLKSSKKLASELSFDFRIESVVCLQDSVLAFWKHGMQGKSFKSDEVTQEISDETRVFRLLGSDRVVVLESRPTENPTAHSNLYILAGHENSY

MARK4 = MARK4 (Homo sapiens (Human), UniProt Q96L34); test: Dundee profiling
Sequence of MARK4 (Q96L34 whole entry, looked up, species assumed): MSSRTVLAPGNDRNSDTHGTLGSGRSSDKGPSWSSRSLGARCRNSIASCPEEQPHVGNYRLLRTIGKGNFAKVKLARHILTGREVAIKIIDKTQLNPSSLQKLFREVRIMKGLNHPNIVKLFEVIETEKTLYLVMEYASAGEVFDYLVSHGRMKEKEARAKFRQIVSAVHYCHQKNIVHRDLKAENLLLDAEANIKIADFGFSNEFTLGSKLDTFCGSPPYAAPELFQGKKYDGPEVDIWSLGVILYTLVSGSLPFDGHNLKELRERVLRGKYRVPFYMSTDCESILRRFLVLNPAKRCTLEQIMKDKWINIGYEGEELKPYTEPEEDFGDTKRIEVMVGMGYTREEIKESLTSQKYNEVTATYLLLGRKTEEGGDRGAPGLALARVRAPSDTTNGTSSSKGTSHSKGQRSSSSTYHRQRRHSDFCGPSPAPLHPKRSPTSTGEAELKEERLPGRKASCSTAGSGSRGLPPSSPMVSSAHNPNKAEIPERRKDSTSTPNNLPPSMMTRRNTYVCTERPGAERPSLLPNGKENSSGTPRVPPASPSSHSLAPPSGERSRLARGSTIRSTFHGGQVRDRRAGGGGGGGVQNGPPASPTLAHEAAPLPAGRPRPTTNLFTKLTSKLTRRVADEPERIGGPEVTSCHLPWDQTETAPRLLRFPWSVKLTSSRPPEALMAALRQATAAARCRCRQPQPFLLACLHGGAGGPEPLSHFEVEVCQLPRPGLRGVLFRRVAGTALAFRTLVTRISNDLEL

EF2K = EF2K (Homo sapiens (Human), UniProt O00418); test: Dundee profiling
TTBK1 = TTBK1 (Homo sapiens (Human), UniProt Q5TCY1); test: Dundee profiling
Sequence of TTBK1 (Q5TCY1 whole entry, species assumed): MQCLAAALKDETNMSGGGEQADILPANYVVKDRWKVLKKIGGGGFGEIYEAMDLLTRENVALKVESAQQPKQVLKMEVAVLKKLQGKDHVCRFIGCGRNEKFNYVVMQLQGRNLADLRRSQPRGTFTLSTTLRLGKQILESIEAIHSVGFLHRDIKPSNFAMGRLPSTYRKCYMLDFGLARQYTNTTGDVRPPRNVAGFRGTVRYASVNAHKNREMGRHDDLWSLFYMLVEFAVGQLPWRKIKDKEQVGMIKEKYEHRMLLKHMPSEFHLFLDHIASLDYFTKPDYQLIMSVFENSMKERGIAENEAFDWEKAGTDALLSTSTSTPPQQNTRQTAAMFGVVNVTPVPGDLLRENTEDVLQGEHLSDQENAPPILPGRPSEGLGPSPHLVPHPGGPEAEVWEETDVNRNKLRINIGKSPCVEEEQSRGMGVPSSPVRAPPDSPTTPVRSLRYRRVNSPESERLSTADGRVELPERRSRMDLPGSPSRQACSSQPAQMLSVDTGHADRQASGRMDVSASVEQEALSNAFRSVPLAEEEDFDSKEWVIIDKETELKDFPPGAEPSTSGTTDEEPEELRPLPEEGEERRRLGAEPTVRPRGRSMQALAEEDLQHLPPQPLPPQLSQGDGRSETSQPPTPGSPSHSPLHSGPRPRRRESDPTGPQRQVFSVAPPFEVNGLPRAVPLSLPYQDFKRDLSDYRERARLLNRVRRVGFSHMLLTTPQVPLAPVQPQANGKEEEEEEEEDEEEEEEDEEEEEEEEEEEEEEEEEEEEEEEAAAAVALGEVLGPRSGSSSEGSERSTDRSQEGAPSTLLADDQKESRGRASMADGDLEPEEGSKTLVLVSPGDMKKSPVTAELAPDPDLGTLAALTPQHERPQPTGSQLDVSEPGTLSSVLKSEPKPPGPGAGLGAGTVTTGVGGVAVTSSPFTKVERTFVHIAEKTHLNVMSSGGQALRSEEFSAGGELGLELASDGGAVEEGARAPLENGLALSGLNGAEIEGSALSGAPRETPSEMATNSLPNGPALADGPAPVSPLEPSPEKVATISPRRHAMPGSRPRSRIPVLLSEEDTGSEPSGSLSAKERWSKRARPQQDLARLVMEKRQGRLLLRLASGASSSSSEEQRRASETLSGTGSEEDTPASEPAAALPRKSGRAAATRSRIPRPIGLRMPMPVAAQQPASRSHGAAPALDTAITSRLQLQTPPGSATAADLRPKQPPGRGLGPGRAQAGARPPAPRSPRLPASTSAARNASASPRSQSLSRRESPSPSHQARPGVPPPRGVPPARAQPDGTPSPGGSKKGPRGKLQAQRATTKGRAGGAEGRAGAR

MNK1 = MNK1 (Homo sapiens (Human), UniProt Q9BUB5); test: Dundee profiling
Sequence of MNK1 (Q9BUB5 whole entry, species assumed): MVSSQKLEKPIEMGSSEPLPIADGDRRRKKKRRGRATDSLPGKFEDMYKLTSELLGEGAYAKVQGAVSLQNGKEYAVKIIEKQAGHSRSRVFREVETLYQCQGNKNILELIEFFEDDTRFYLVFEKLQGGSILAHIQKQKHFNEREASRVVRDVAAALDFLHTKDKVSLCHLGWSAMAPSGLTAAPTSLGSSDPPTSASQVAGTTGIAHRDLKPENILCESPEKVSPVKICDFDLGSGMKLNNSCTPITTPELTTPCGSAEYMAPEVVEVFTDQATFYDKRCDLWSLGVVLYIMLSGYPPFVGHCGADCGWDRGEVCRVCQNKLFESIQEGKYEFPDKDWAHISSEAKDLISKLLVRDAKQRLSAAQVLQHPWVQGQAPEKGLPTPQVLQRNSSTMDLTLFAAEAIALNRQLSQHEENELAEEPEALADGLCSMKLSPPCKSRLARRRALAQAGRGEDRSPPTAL

PIM1 = PIM1 (Homo sapiens (Human), UniProt P11309); test: Dundee profiling
PDK1 = PDK1 (Homo sapiens (Human), UniProt O15530); test: Dundee profiling
Sequence of PDK1 (O15530 whole entry): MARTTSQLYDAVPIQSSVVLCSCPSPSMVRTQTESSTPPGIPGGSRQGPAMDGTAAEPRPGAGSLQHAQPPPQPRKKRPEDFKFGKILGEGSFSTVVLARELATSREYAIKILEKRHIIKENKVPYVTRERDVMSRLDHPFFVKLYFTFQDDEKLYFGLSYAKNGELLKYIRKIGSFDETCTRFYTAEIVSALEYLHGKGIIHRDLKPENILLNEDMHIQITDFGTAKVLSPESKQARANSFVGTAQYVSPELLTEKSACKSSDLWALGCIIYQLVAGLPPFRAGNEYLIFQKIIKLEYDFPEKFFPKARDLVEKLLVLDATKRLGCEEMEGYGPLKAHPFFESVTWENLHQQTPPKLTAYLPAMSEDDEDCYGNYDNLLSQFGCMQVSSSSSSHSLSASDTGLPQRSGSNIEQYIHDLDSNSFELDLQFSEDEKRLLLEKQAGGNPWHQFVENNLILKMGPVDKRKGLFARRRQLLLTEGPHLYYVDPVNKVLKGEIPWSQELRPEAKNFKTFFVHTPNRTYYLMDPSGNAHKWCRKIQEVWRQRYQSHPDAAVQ

MLK3 = MLK3 (Homo sapiens (Human), UniProt Q16584); test: Dundee profiling
PKD1 = PKD1 (Homo sapiens (Human), UniProt Q15139); test: Dundee profiling
Sequence of PKD1 (Q15139 whole entry): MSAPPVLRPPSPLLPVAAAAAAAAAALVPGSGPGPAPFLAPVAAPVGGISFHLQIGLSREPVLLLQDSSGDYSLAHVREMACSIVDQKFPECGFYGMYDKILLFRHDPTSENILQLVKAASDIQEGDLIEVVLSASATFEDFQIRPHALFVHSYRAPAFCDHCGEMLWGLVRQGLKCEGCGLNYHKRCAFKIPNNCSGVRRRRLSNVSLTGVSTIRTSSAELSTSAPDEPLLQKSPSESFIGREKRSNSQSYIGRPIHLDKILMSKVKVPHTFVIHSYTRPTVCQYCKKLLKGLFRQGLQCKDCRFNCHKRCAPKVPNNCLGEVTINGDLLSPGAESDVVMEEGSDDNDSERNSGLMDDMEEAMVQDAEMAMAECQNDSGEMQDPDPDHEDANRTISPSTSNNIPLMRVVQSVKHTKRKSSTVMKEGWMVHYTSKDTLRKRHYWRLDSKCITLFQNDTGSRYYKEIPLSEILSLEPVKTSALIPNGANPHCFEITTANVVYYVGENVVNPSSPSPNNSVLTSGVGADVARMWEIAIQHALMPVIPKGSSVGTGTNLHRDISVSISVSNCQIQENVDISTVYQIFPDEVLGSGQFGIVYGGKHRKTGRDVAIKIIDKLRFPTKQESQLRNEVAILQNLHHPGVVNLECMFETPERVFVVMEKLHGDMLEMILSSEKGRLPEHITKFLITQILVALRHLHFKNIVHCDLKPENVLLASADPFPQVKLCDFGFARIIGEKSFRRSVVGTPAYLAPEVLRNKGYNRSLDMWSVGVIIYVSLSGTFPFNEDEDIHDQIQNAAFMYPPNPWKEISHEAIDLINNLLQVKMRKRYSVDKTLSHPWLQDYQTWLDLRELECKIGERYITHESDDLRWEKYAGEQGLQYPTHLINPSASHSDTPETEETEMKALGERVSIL

[6] = read-out: percent remaining enzymatic activity, I1, 1 μM
[7] = read-out: percent remaining enzymatic activity, I10
[8] = read-out: percent remaining enzymatic activity

SMILES: CNc1nc(Nc2ccc(C(=O)N3CCOCC3)cc2OC)nc2[nH]cc(Cl)c12 [Compound 18, (4-((5-chloro-4-(methylamino)-7H-pyrrolo[2,3-d]pyrimidin-2-yl)amino)-3-methoxyphenyl)(morpholino)methanone]
- IC50 [1]: 6.6 nM
- IC50 [2]: 47.7 nM
- IC50 [3]: 19.8 nM
- IC50 [4]: 2.2 nM
- concentration giving substantial dephosphorylation of Ser910 and Ser935 (GFP-LRRK2[G2019S]): approximately 0.3
- KinomeScan value (BMPR2): 100
- KinomeScan value [5]: 81
- KinomeScan value (JNK1): 60
- remaining activity at 1 µM (MAP4K5; [6]): 110%
- remaining activity at 1 µM (MAP4K5; [7]): 92%
- percent remaining enzymatic activity (MARK4; I10): 98%
- remaining activity at 1 µM (MARK4; [8]): 109%
- remaining activity at 1 µM (EF2K; [6]): 105%
- remaining activity at 1 µM (EF2K; [7]): 102%
- remaining activity at 1 µM (TTBK1; [6]): 103%
- remaining activity at 1 µM (TTBK1; [7]): 98%
- remaining activity at 1 µM (MNK1; [6]): 102%
- remaining activity at 1 µM (MNK1; [7]): 78%
- remaining activity at 1 µM (PIM1; [6]): 95%
- remaining activity at 1 µM (PIM1; [7]): 88%
- remaining activity at 1 µM (PDK1; [6]): 91%
- remaining activity at 1 µM (PDK1; [7]): 88%
- percent remaining enzymatic activity (MLK3; I10): 35%
- remaining activity at 1 µM (MLK3; [8]): 78%
- remaining activity at 1 µM (PKD1; [6]): 47%
- remaining activity at 1 µM (PKD1; [7]): 7%
